Source: patent publication US20070026478A1, “Hemiasterlin affinity probes and their uses” (WYETH, priority 2002, published 2007)
Counter-ions that a name gives are not always drawn. Like-named read-outs stand apart in the source and are kept apart here. Marks after values point to notes of the source that are not given here.

Legend:
bovine brain tubulin [1] = molecular target: T1, bovine brain tubulin (Bos taurus, UniProt P81947+Q6B856); assay: Reversible binding affinity assay (tubulin fluorescence)
T1 construct: MAP-rich bovine brain tubulin (99% purity), Hela cell tubulin (90% purity); purchased Cytoskeleton (Denver, Colo.); host or cells: bovine brain
Procedure: The affinity of both HTI-286 and of non-radiolabled Probe 1 and Probe 2, to bovine brain tubulin was determined by previously published methods (Krishnamurthy et al., Biochem., submitted). Briefly, 5 mg/mL […] tubulin prepared in PEM buffer was pre-incubated with buffer or varying concentrations of test agents in individual quartz cuvettes. The intrinsic tryptophan fluorescence of tubulin (excitation at 560 nm and maximal emission at 580 nm) was measured after pre-incubation for 90 minutes. The change in fluorescence intensity at 580 nm in the presence of compound was fitted to a quadratic equation to obtain apparent dissociation constants (KD) of the test agents.

bovine MAP-rich tubulin = molecular target: T2, bovine MAP-rich tubulin (Bos taurus, UniProt P81947+Q6B856); assay: Tubulin polymerization assay in a cell-free system; format: biochemical; conditions: 0.3 μM compound
T2 construct: MAP-rich bovine brain tubulin (99% purity), Hela cell tubulin (90% purity); purchased Cytoskeleton (Denver, Colo.); host or cells: bovine brain
Procedure: In vitro tubulin polymerization assays were performed according to procedures that have been described elsewhere (Loganzo et al., Cancer Res. 2003, 63:1838-1845). Briefly, bovine MAP-rich tubulin (final concentration 1.5 mg/mL) was dissolved in cold PEM buffer containing 1 mM GTP (GPEM) and centrifuged at 12,000×g for 10 minutes at 4° C. The tubulin solution (100 μL/well) was added rapidly to wells of a low-volume, 96-well plate already containing duplicate aliquots (10 μL) of test compounds in GPEM. Final compound concentrations were 0.3 μM. Control wells contained the same final concentration of DMSO (0.3%). After initiation of the reaction, absorbance at 340 nm was measured every minute for 60 minutes at 24° C. using a SpectraMax Plus plate reader (Molecular Devices, Sunnyvale, Calif.). An increase in absorbance over time indicated an increase in turbidity resulting from tubulin polymerization.

KB cells = assay: Cell proliferation assay in tissue culture (SRB); format: cell-based; conditions: Homo sapiens, KB, 72 h
Procedure: Cell proliferation studies were performed according to procedures described by Loganzo et al. (Cancer Res. 2003, 63:1838-1845). Briefly, KB cells were plated in 96-well plates in 100 μL media at densities pre-determined to produce 60-90% confluence at the time of analysis. Compounds, which were serially diluted into media as 2× stocks, were added to cells in duplicate. After 72 hours of incubation, cell survival was assayed by the SRB assay as described (Rabindran et al., C. Cancer Res. 1998, 58:5850-5858). IC50 values (i.e. the concentration of drug needed to inhibit cell growth by 50%) were used to evaluate drug potency.

bovine brain tubulin [2] = molecular target: T1, bovine brain tubulin; assay: Competition of [3H]-Probe 1 photolabeling of tubulin; format: binding; conditions: for inhibition of incorporation of radiolabeled Probe 1 into α-tubulin: 1 mM competitor, 37° C. incubation; for Probe 1 photolabeling of tubulin (% of no-competitor control): control (no competitor) = 100
Procedure: (§1) Alternatively, a cytosolic preparation of KB-3-1 cell lysates (50 μg) or KB-3-1 cells (40,000 cells) were used in the place of purified tubulin above. The supernatant of mechanically disrupted cells centrifuged at 100,000×g was used as a cytosolic preparation. K-3-1 cells were prepared by growing KB-3-1 cells in a 96-well plate and rinsing them with serum free medium.
If whole cells were used, Laemmli sample buffer was then added to lyse the cells.
Low grade SDS (Sigma, catalog No. L5750) was used in the running buffer, when needed, to allow separation of α and β-tubulin subunits. Gels were fixed, stained with Coomassie blue from BioRad (Hercules, Calif.) to ensure equal loading of protein, and sliced. […] Alternatively, gels were incubated with EN^3HANCE according to the manufacturer's instructions (Life Sciences Products, Inc.), washed, and dried prior to exposure of the gel to Biomax MX film from Kodak (Rochester, N.Y.) for fluorography.
After incubation for 30 minutes at 37° C., samples were irradiated with 360 nm UV light for 30 minutes and separated by SDS-PAGE. Gels were exposed to film using fluorographic techniques.
In particular, photolabeling experiments were performed as described in section 7.1.5 above, at both room temperature and at 37° C.

[3] = molecular target: T3, tubulin in whole KB-3-1 cells (Homo sapiens, UniProt P07437+P68363); assay: Probe 1 photolabeling in whole KB-3-1 cells; format: cell-based; conditions: 250 μM pre-incubation at 37° C. for 15 minutes
T3 construct: a cytosolic preparation of KB-3-1 cell lysates (50 μg) or KB-3-1 cells (40,000 cells) were used in the place of purified tubulin; endogenous in cells; host or cells: KB-3-1 cells (cytosolic supernatant at 100,000 x g, or whole cells)
Procedure: as §1, with “medium. For experiments with whole cells, 250 μM HTI-286 was used as the competitor molecule during pre-incubation at 37° C. for 15 minutes.” for “medium.”
Samples were irradiated at 360 nm with a Mineralight lamp (UVP, Upland, Calif.) for 30 minutes (for Probe 1), 2 hours (for whole cells with Probe 1), or 2 hours (for Probe 2) at 4° C., unless otherwise noted. Radiation of the benzophenone moiety at this wavelength effectively activates the photoprobe with minimal destruction of protein compared to the shorter wavelengths typically used for azido-containing photoprobes (see, Williams et al., Methods Enzymol. 1986, 126:667-682). If whole cells were used, Laemmli sample buffer was then added to lyse the cells.

tubulin [4] = molecular target: T4, tubulin (Bos taurus, UniProt P81947+Q6B856); assay: Competition of [3H]-Probe 2 photolabeling of tubulin; format: binding, bovine; conditions: 100 μM competitor, 2.5 μM tubulin, 0.25 μM [3H]-Probe 2, room temperature
T4 construct: MAP-rich bovine brain tubulin (99% purity), Hela cell tubulin (90% purity); purchased Cytoskeleton (Denver, Colo.); host or cells: bovine brain
Procedure: as §1
Competition binding experiments were performed as described in Section 7.1.5. […] Samples were then irradiated for 2 hours at 4° C. and evaluated by SDS-PAGE and fluorography.

α-tubulin = molecular target: T5, α-tubulin (Bos taurus, UniProt P81947+Q6B856); assay: Subtilisin digestion of tubulin after incubation with various compounds; format: biochemical, bovine; conditions: 50 μM drug, subtilisin up to 60 min at room temperature
T5 construct: MAP-rich bovine brain tubulin (99% purity), Hela cell tubulin (90% purity); purchased Cytoskeleton (Denver, Colo.); host or cells: bovine brain
Procedure: Tubulin (5 μg) was incubated with 50 μM drug at room temperature for 25 minutes and then digested under native conditions with subtilisin (0.05 μg) for 0, 5, 10, 15, 30 and 60 min at room temperature. Enzymatic digestion was stopped with 1 mM PMSF and samples were resolved by SDS-PAGE under conditions that allowed separation of α- and β-tubulin subunits. Gels were then fixed and stained with Coomassie blue.

tubulin [5] = molecular target: T4, tubulin; assay: Separation of polymerized and free tubulin by centrifugation; format: biochemical, bovine; conditions: 50 μM drug, centrifugation at 10,000 g and 100,000 g
Procedure: Tubulin (5 μg) was incubated with 50 μM drug at room temperature for 25 minutes and then centrifuged at either 10,000 g for 15 minutes in a tabletop microfuge or at 100,000 g for 15 minutes in an airfuge. The supernatant was carefully removed to a fresh tube to obtain free tubulin and the pellet was solubilized in SDS-PAGE sample buffer.

P-glycoprotein = P-glycoprotein (Homo sapiens, UniProt P08183); conditions: Loganzo et al., Cancer Res. 2003; cited from earlier work

CN[C@H](C(=O)N[C@H](C(=O)N(C)[C@H](/C=C(\C)C(=O)O)C(C)C)C(C)(C)C)C(C)(C)c1ccccc1 [HTI-286, N,β,β-trimethyl-L-phenylalany-N^1[(1S,2E)-3-carboxy-1-isopropylbut-2-enyl]-N^1,3-dimethyl-L-valinamide trifluoroacetate]
Kd (bovine brain tubulin [1]; Table 1, binding to bovine brain tubulin, read-out: KD): 400 to 800 nM
Kd (bovine brain tubulin [1]; rhodamine-labeled tubulin, 90 minutes pre-incubation, read-out: apparent binding constant (KD), fluorescence method): 600 nM
inhibition at 0.3 µM (bovine MAP-rich tubulin): 88%
tubulin polymerization (% inhibition) (bovine MAP-rich tubulin; 0.3 µM): 87.5 ± 12.2 (n = 49) %
IC50 (KB cells): 0.96 nM
inhibition of incorporation of radiolabeled Probe 1 into α-tubulin (bovine brain tubulin [2]; 0.25 μM radiolabeled Probe 1, 2.5 μM tubulin): completely inhibits
inhibition of incorporation of radiolabeled Probe 1 into α-tubulin (bovine brain tubulin [2]; 2.5 μM radiolabeled Probe 1, 2.5 μM tubulin): more than 50%
reduction of Probe 1 photolabeling of tubulin (bovine brain tubulin [2]; 37° C.): about 50%
Probe 1 photolabeling of tubulin (% of no-competitor control) (bovine brain tubulin [2]; 37° C., 100 μM competitor): 47^† %
Probe 1 photolabeling of tubulin (% of no-competitor control) (bovine brain tubulin [2]; Room Temp., 2.5 μM tubulin, 0.25 μM radiolabeled Probe 1, 100 μM competitor): 27 ± 4%
IC50 (bovine brain tubulin [2]; room temperature, 2.5 μM tubulin, 0.25 μM radiolabeled Probe 1, read-out: IC50 for inhibition of Probe 1 photolabeling of tubulin): 7000 nM
reduction of Probe 1 photolabeling of tubulin (bovine brain tubulin [2]; room temperature, 400-fold molar excess (100 μM) competitor, 2.5 μM tubulin, 0.25 μM radiolabeled Probe 1): approximately 72%
competition of radiolabeled Probe 1 labeling in whole cells [3]: eliminates the specific labeling of the 50 kDa tubulin band
inhibition of Probe 2 labeling of tubulin (tubulin [4]): 45%
protection of α-tubulin from subtilisin cleavage (α-tubulin): unable to cleave α-tubulin even after 60 minutes
protein recovered in pellet fractions (tubulin aggregation) (tubulin [5]): no significant protein was recovered
interaction with P-glycoprotein (P-glycoprotein): weak interaction
